Data from the NIST ThermoML archive (doi:10.1016/j.fluid.2005.09.019).

Experiment: wn = mass fraction of the nth substance listed
Conditions: Fluid (supercritical or subcritical phases), Other PVT measurement

CCCCCCCCOC(=O)c1ccccc1-c1ccccc1C(=O)OCCCCCCCC [dioctyl [1,1'-biphenyl]-2,2'-dicarboxylate] + O=C=O
Conditions	mass density [kg/m3]
294.15 K, 29730 kPa, w1 = 0.55	926
294.75 K, 7070 kPa, w1 = 0.019	786
294.95 K, 61930 kPa, w1 = 0.374	942
296.95 K, 55900 kPa, w1 = 0.374	931
297.05 K, 11550 kPa, w1 = 0.628	870
298.55 K, 27860 kPa, w1 = 0.55	917
299.45 K, 9000 kPa, w1 = 0.019	784
301.15 K, 12660 kPa, w1 = 0.628	862
303.75 K, 60200 kPa, w1 = 0.274	984
308.05 K, 69130 kPa, w1 = 0.094	953
311.55 K, 50510 kPa, w1 = 0.274	965
312.35 K, 42450 kPa, w1 = 0.374	882
313.45 K, 26760 kPa, w1 = 0.55	896
316.95 K, 53240 kPa, w1 = 0.094	911
317.25 K, 14760 kPa, w1 = 0.019	750
318.45 K, 16170 kPa, w1 = 0.628	848
319.45 K, 53170 kPa, w1 = 0.171	1122
320.25 K, 44070 kPa, w1 = 0.069	922
322.45 K, 27040 kPa, w1 = 0.55	895
322.55 K, 49720 kPa, w1 = 0.206	1098
323.45 K, 44620 kPa, w1 = 0.274	934
324.25 K, 48000 kPa, w1 = 0.094	883
327.05 K, 41620 kPa, w1 = 0.069	899
329.65 K, 48240 kPa, w1 = 0.171	1085
330.85 K, 28520 kPa, w1 = 0.55	882
331.25 K, 47070 kPa, w1 = 0.206	1071
334.65 K, 19620 kPa, w1 = 0.628	838
334.65 K, 39730 kPa, w1 = 0.374	852
334.85 K, 19620 kPa, w1 = 0.019	716
337.75 K, 42720 kPa, w1 = 0.274	903
339.35 K, 44380 kPa, w1 = 0.094	845
340.95 K, 45450 kPa, w1 = 0.206	1040
340.95 K, 46170 kPa, w1 = 0.171	1048
342.45 K, 40210 kPa, w1 = 0.374	857
342.75 K, 39580 kPa, w1 = 0.069	852
351.75 K, 44960 kPa, w1 = 0.206	1005
352.95 K, 42930 kPa, w1 = 0.274	879
353.55 K, 23520 kPa, w1 = 0.628	828
353.85 K, 32040 kPa, w1 = 0.55	866
353.95 K, 45690 kPa, w1 = 0.171	1013
354.35 K, 43820 kPa, w1 = 0.094	811
355.95 K, 41140 kPa, w1 = 0.374	830
356.55 K, 40450 kPa, w1 = 0.069	821
359.75 K, 25240 kPa, w1 = 0.019	671
359.75 K, 45100 kPa, w1 = 0.206	994
367.25 K, 43820 kPa, w1 = 0.274	849
369.25 K, 46200 kPa, w1 = 0.171	970
369.85 K, 45410 kPa, w1 = 0.206	955
370.25 K, 44510 kPa, w1 = 0.094	779
371.05 K, 26730 kPa, w1 = 0.628	821
371.45 K, 42590 kPa, w1 = 0.374	816
371.55 K, 41450 kPa, w1 = 0.069	788
371.85 K, 34480 kPa, w1 = 0.55	851
375.95 K, 27720 kPa, w1 = 0.019	638

O=C(OCCC(F)(F)C(F)(F)C(F)(F)C(F)(F)C(F)(F)C(F)(F)F)c1ccccc1-c1ccccc1C(=O)OCCC(F)(F)C(F)(F)C(F)(F)C(F)(F)C(F)(F)C(F)(F)F + O=C=O
Conditions	mass density [kg/m3]
294.65 K, 5000 kPa, w1 = 0.652	892
294.65 K, 5620 kPa, w1 = 0.36	681
294.85 K, 5930 kPa, w1 = 0.063	606
295.15 K, 6040 kPa, w1 = 0.13	668
295.55 K, 6170 kPa, w1 = 0.021	663
297.35 K, 6380 kPa, w1 = 0.13	688
297.45 K, 6110 kPa, w1 = 0.36	690
297.75 K, 5170 kPa, w1 = 0.652	896
298.65 K, 5930 kPa, w1 = 0.515	968
298.75 K, 6310 kPa, w1 = 0.288	798
298.85 K, 6590 kPa, w1 = 0.063	640
299.15 K, 6690 kPa, w1 = 0.021	643
303.05 K, 7110 kPa, w1 = 0.13	662
303.35 K, 7210 kPa, w1 = 0.063	617
303.35 K, 7380 kPa, w1 = 0.021	601
304.65 K, 7210 kPa, w1 = 0.288	781
307.95 K, 7210 kPa, w1 = 0.515	949
309.35 K, 8200 kPa, w1 = 0.021	558
309.75 K, 7970 kPa, w1 = 0.36	739
309.95 K, 8030 kPa, w1 = 0.063	579
309.95 K, 8070 kPa, w1 = 0.288	771
311.95 K, 8580 kPa, w1 = 0.13	630
314.35 K, 7140 kPa, w1 = 0.652	966
317.85 K, 8860 kPa, w1 = 0.515	929
318.85 K, 9510 kPa, w1 = 0.288	750
320.05 K, 10210 kPa, w1 = 0.36	724
321.05 K, 10870 kPa, w1 = 0.202	594
323.85 K, 11580 kPa, w1 = 0.13	613
327.05 K, 11550 kPa, w1 = 0.021	518
330.25 K, 13000 kPa, w1 = 0.063	561
331.85 K, 12530 kPa, w1 = 0.36	712
332.75 K, 12890 kPa, w1 = 0.288	728
333.95 K, 9800 kPa, w1 = 0.652	940
334.55 K, 12170 kPa, w1 = 0.515	899
336.45 K, 14580 kPa, w1 = 0.202	578
341.45 K, 15270 kPa, w1 = 0.36	701
346.35 K, 16510 kPa, w1 = 0.13	581
349.25 K, 15310 kPa, w1 = 0.021	490
349.95 K, 17000 kPa, w1 = 0.063	536
350.65 K, 15520 kPa, w1 = 0.515	870
352.75 K, 17100 kPa, w1 = 0.288	697
353.75 K, 12800 kPa, w1 = 0.652	918
354.55 K, 18170 kPa, w1 = 0.202	565
354.95 K, 17650 kPa, w1 = 0.36	681
367.35 K, 20380 kPa, w1 = 0.13	553
368.25 K, 17510 kPa, w1 = 0.021	458
368.45 K, 18830 kPa, w1 = 0.515	840
369.05 K, 20170 kPa, w1 = 0.288	675
369.25 K, 19820 kPa, w1 = 0.36	659
370.45 K, 15210 kPa, w1 = 0.652	900
371.85 K, 20310 kPa, w1 = 0.063	503
371.85 K, 21240 kPa, w1 = 0.202	542
